In patent US7964613B2 (Asahi Kasei Pharma Corporation, priority 2007, dated 2011):

Assays:
human ROCK1 = biological target: T1, human ROCK1 (Homo sapiens, UniProt Q13464); experiment: Measurement of Rho kinase inhibitory activity (ELISA of MBS phosphorylation); assay type: biochemical; details: human ROCK1, MBS substrate, 100 μM ATP, 30° C. for 10 minutes
T1 construct: His tag (N); host or cells: insect cells (Sf9)
Summary of the method: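 N-terminal His-tagged human ROCK1 (1-727, Sf9-expressed) phosphorylated plate-immobilized MBS in 20 mM HEPES pH 7.5, 100 μM ATP, 30° C for 10 minutes. Phospho-MBS detected by antibody ELISA (A490); IC50 is concentration giving 50% inhibition.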

TNF-α production = experiment: Inhibitory effect on TNF-α production in mice (LPS); assay type: in vivo, BALB/c mice; details: Mus musculus, 1.5 h; oral administration of 30 mg/kg, LPS 5 μg i.p. 60 minutes later, plasma after 90 minutes; read-out: TNF-α production suppressing action
Experimental: BALB/c mice (Japan CRJ, famale) were used as experimental animals. Each test compound was dissolved in distilled water at a concentration suitable for the examination. The weight of each mouse was measured, a test compound solution was orally administered in a volume corresponding to 10 ml/kg, and only distilled water was administered to the control group. Each group consisted of five to seven animals. LPS was dissolved in physiological saline, and intraperitoneally administered to each mouse in an amount of 5 μg. The test compound was administered first, and LPS (lipopolysaccharide, Sigma) was administered 60 minutes later. After 90 minutes, blood was collected from the abdominal large vein in the presence of heparin, and plasma was obtained by centrifugation. TNF-α content in the plasma was measured by using the ELISA method.

[1] = system: rabbit normal intraocular pressure; experiment: Intraocular pressure reducing action; assay type: in vivo, Japanese white rabbit; details: Oryctolagus cuniculus, topical, read-out: intraocular pressure reducing degree; for inhibition in vivo at 3000 µM: 3 mM aqueous solution, 50 μl to the left eye, max IOP reduction (2, 4, 6 hours) / value immediately before administration
Summary of the method: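 Japanese white rabbits (~2 kg) under topical anaesthesia received 50 μl of a 3 mM aqueous test solution in the left eye, right eye untreated. IOP read by tonometer before and at 2, 4, 6 h; maximal left–right difference divided by pre-dose IOP ×100 gives % reduction.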

[2] = system: mouse neuroblastoma cell strain N1E-115; experiment: Inhibitory effect on neurite retraction (LPA-induced); assay type: cell-based; details: mouse/rat NG108-15; 10 μM compound, 1 μM LPA, N1E-115 cells
Experimental: An experiment for Inhibitory effect on neurite retraction using mouse neuroblastoma cell strain N1E-115 was performed according to the method of Hirose, M. et al. (J. Cell. Biol., 141, pp. 1625-1636 (1998)). This method utilizes the fact that LPA (lysophosphatidic acid), which is a endogenous substance, induces neurite retraction, and is a method of evaluating how much a drug can inhibit the LPA-induced neurite retraction and thereby evaluating potency of inhibition of neuronal degeneration and potency of neuronal regeneration of the drug. N1E-115 cells cultured in a DMEM solution containing 20% heat-inactivated fetal bovine serum were plated on a 6-well plate (IWAKI) at a density of 40,000 cells/well, and cultured overnight at 37° C. in the same culture medium in a 5% CO2 incubator. In order to induce differentiation of the N1E 115 cells into nerve cells, the culture medium was changed to the serum-free DMEM solution, and the cells were cultured for 1 or 2 days at 37° C. in the 5% CO2 incubator until most of the cells extended the neurites. On the examination day, each compound of the present invention was added at a final concentration of 10 μM, incubation was performed for 30 minutes, then LPA (Sigma) was added at a final concentration of 1 μM, and incubation was further performed for 10 minutes. To the control, the same volume of phosphate buffered saline as the solvent was added. After completion of the incubation, glutaraldehyde was added at a final concentration of 5% to fix the cells. […] The inhibition rate (%) of each drug was calculated by using the following equation. Inhibition rate(%)=100−(RCP obtained with drug to be evaluated−RCP of control)/(RCP obtained with LPA−RCP of control)×100

[3] = system: rat spinal canal stenosis (cauda equina compression-induced walking dysfunction) model; experiment: Rat spinal canal stenosis model, walking ability test; assay type: in vivo; details: treadmill; for walk distance compared with the solvent repetitive administration group: 14th day of repetitive administration; for Inventive compound repetitive administration group (average distance (m)): 14th day of repetitive administration started 4th day after operation, 7 or 8 animals
Description: A rat spinal canal stenosis (cauda equina compression-induced walking dysfunction) model can be prepared according to the method of Nakai, K et al. (Anesth. Analg., 94, pp. 1537-1541 (2002)) or the like. Namely, a rat is anesthetized with pentobarbital sodium, shaved on the back, and fixed in the abdominal position. After disinfection on the back with Isodine Surgical Scrub (Meiji Seika), a lumbar part is cut open along the median to expose the spine. Then, a silicone rubber of 1×4×1.5 mm (height×length×width) is inserted into the fifth lumbar vertebral canal from a small hole on the vertebral arch. Benzylpenicillin potassium (Crystalline Penicillin G Potassium Meiji, Meiji Seika) is dropped on the opened lesion and intramuscularly injected in the femoral region for the purpose of evasion of infectious diseases. The muscles and skin of the opened lesion are sutured with a ligature, and Isodine Surgical Scrub is applied to the sutured portion. Animals of sham group are also prepared according to the aforementioned method, provided that silicone rubber is not inserted.
In walking ability test, evaluation is performed by using a treadmill (Muromachi Kikai). A rat is placed on a traveling belt, adapted to the environment more than 3 minutes under a grid-electrified condition (0.04 to 4 mA), and then made to start walking from a velocity of 10 m/min, and then the velocity is increased by 5 m/min every 3 minutes. The walk is stopped, and electrical stimulation (0.04 to 4 mA) is applied to the rat which has moved to the grid for electrical stimulation provided before the traveling belt. Distance which the animal walked after the animal started the walk until the animal became unable to walk, i.e., the animal came not to walk even if a stimulation (sound, contact, electricity) was added to the animal to urge it to walk, was calculated from the walking time. Before the operation, the walking function test is carried out 3 times to perform training of walk. From the 4th day after the operation, repetitive administration of each compound of the present invention as a test compound was started, and the walking ability test was performed on the 14th day of the administration for the measurement.
Each group consisted of 7 or 8 animals, and the average distance before the administration was the average for the animals of both groups. […] It was confirmed that the compounds of the present invention were useful as medicaments for therapeutic treatment of a disease accompanied by walking dysfunction such as spinal canal stenosis.

T1 sequence (Q13464 1-727): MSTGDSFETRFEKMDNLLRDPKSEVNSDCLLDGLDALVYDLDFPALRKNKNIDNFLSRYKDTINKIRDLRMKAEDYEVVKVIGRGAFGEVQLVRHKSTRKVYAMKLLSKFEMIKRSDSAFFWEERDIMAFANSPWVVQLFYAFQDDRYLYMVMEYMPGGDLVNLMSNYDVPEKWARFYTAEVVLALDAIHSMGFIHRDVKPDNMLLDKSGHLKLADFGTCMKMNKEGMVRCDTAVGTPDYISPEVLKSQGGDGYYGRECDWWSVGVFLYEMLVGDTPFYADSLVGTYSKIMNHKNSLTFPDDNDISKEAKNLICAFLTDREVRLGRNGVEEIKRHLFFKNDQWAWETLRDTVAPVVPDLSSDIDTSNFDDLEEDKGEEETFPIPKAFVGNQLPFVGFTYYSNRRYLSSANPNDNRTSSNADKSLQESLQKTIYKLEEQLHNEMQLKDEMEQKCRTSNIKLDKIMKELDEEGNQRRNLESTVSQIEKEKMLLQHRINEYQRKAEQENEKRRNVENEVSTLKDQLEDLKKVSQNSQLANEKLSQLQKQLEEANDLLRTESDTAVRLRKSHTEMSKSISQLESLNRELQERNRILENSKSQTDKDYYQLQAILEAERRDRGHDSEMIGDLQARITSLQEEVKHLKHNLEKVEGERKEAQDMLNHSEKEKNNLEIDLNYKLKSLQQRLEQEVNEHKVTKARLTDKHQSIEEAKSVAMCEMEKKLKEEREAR

IC50 (human ROCK1) | Compound | inhibition in vivo at 30 mg/kg (TNF-α production) | inhibition in vivo at 3000 µM [1] | inhibition in vivo at 1000 µM ([1]; test compound of 1 mM, same test as Test Example 3) | inhibition at 10 µM [2] | walk distance compared with the solvent repetitive administration group [3] | Inventive compound repetitive administration group (average distance (m)) [3]
< 1000 nM | CN[C@H]1CCN(S(=O)(=O)c2cccc3cncc(Br)c23)C1 [Example 1-3, (S)-1-(4-Bromo-5-isoquinolinesulfonyl)-3-(methylamino)pyrrolidine] | ≥ 50% | ≥ 20% | ≥ 20% | – | – | –
< 1000 nM | O=S(=O)(c1cccc2cncc(Br)c12)N1CC[C@H](NCc2ccc[nH]2)C1 [Example 1-18] | ≥ 50% | 10 to 20% | – | ≥ 50% | – | –
1000 to 3000 nM | O=S(=O)(c1cccc2cncc(Br)c12)N1CC[C@H](NC2CCOCC2)C1 [Example 1-30] | ≥ 30% | ≥ 20% | – | – | – | –
< 1000 nM | O=S(=O)(c1cccc2cncc(Br)c12)N1CC[C@H](NCc2ccco2)C1 [Example 4-1, (S)-3-(2-Furylmethyl)amino-1-(4-bromo-5-isoquinolinesulfonyl)pyrrolidine] | ≥ 30% | ≥ 20% | – | – | – | –
< 1000 nM | Cc1cncc2cccc(S(=O)(=O)N3CC[C@H](N)C3)c12 [Example 8-1, (S)-3-Amino-1-(4-methyl-5-isoquinolinesulfonyl)pyrrolidine] | ≥ 50% | ≥ 20% | – | – | extended the walk distance | 169 m
< 1000 nM | CN[C@@H]1CCN(S(=O)(=O)c2cccc3cncc(Cl)c23)C1 [Example 32-2, (R)-1-(4-Chloro-5-isoquinolinesulfonyl)-3-(methylamino)pyrrolidine] | – | 10 to 20% | – | ≥ 50% | – | –
< 1000 nM | CN[C@H]1CCN(S(=O)(=O)c2cccc3c(O)ncc(Br)c23)C1 [Example 35-1, (S)-1-(1-Hydroxy-4-bromo-5-isoquinolinesulfonyl)-3-(methylamino)pyrrolidine] | ≥ 50% | 5 to 10% | – | – | – | –
< 1000 nM | CN[C@H]1CCN(S(=O)(=O)c2cccc3c(N)ncc(Br)c23)C1 [Example 42-1, (S)-1-(1-Amino-4-bromo-5-isoquinolinesulfonyl)-3-(methylamino)pyrrolidine] | – | 5 to 10% | – | ≥ 50% | – | –

The next lines start with the compound.

Compound | IC50 (human ROCK1) | inhibition in vivo at 30 mg/kg (TNF-α production) | inhibition in vivo at 3000 µM [1] | inhibition in vivo at 1000 µM ([1]; test compound of 1 mM, same test as Test Example 3) | inhibition at 10 µM [2] | walk distance compared with the solvent repetitive administration group [3] | Inventive compound repetitive administration group (average distance (m)) [3]
Cc1ccc(CN[C@H]2CCN(S(=O)(=O)c3cccc4cncc(C)c34)C2)cc1 [Example 8-12] | < 1000 nM | ≥ 50% | ≥ 20% | – | – | – | –
C#Cc1cncc2cccc(S(=O)(=O)N3CC[C@H](N)C3)c12 [Example 10-1, (S)-3-Amino-1-(4-ethynyl-5-isoquinolinesulfonyl)pyrrolidine] | < 1000 nM | ≥ 50% | ≥ 20% | – | – | – | –
N[C@H]1CCN(S(=O)(=O)c2cccc3cncc(C4CC4)c23)C1 [Example 11-1, (S)-3-Amino-1-(4-cyclopropyl-5-isoquinolinesulfonyl)pyrrolidine] | < 1000 nM | ≥ 30% | 5 to 10% | – | – | – | –
N[C@H]1CCN(S(=O)(=O)c2cccc3cncc(F)c23)C1 [Example 18-1, (S)-3-Amino-1-(4-fluoro-5-isoquinolinesulfonyl)pyrrolidine] | 1000 to 3000 nM | ≥ 50% | ≥ 20% | – | ≥ 50% | – | –
O=S(=O)(c1cccc2cncc(Cl)c12)N1CC[C@H](NC2CCOCC2)C1 [Example 19-31] | 1000 to 3000 nM | ≥ 50% | – | – | ≥ 50% | – | –
N[C@H]1CCN(S(=O)(=O)c2cccc3c(O)ncc(F)c23)C1 [Example 29-1, (S)-3-Amino-1-(1-hydroxy-4-fluoro-5-isoquinolinesulfonyl)pyrrolidine] | < 1000 nM | ≥ 50% | 10 to 20% | – | ≥ 50% | – | –
Nc1ncc(Cl)c2c(S(=O)(=O)N3CC[C@H](N)C3)cccc12 [Example 39-1, (S)-3-Amino-1-(1-amino-4-chloro-5-isoquinolinesulfonyl)pyrrolidine] | < 1000 nM | ≥ 50% | 10 to 20% | – | ≥ 50% | – | –
CN[C@H]1CCN(S(=O)(=O)c2cccc3c(N)ncc(Cl)c23)C1 [Example 40-1, (S)-1-(1-Amino-4-chloro-5-isoquinolinesulfonyl)-3-(methylamino)pyrrolidine] | 1000 to 3000 nM | ≥ 50% | 5 to 10% | – | ≥ 50% | – | –
COCC(=O)N[C@H]1CCN(S(=O)(=O)c2cccc3cncc(Cl)c23)C1 [Example 56-1, (S)-3-(2-Methoxyacetyl)amino-1-(4-chloro-5-isoquinolinesulfonyl)pyrrolidine] | 1000 to 3000 nM | ≥ 30% | ≥ 20% | – | – | – | –
CN(C)CC(=O)N[C@H]1CCN(S(=O)(=O)c2cccc3cncc(Cl)c23)C1 [Example 57-1, (S)-3-[(2-Dimethylamino)acetyl]amino-1-(4-chloro-5-isoquinolinesulfonyl)pyrrolidine] | 1000 to 3000 nM | ≥ 30% | ≥ 20% | – | – | extended the walk distance | 183 m
